Literature values in publication PMC4054929 (Bioorganic & medicinal chemistry, 2014).

System: PDE10A
Settings: unlabeled compounds; cited from earlier work

Row | Compound | IC50 [nM]
1 | COc1cc2ccccc2nc1COc1ccc(-c2nn(C)cc2-c2ccncc2)cc1 [Compound 1] | 0.4 ± 0.02
2 | COc1cc(COc2ccc(-c3nn(C)cc3-c3ccncc3)cc2)nc2ccccc12 [Compound 2] | 0.28 ± 0.06
3 | COc1ccc2nc(COc3ccc(-c4nn(C)cc4-c4ccncc4)cc3)ccc2c1 [Compound 3] | 1.82 ± 0.25
